pIC50: −log10 of the molar value.
Target: T1, human GnRH receptor (Homo sapiens, UniProt P30968)
T1 sequence (P30968 1-328): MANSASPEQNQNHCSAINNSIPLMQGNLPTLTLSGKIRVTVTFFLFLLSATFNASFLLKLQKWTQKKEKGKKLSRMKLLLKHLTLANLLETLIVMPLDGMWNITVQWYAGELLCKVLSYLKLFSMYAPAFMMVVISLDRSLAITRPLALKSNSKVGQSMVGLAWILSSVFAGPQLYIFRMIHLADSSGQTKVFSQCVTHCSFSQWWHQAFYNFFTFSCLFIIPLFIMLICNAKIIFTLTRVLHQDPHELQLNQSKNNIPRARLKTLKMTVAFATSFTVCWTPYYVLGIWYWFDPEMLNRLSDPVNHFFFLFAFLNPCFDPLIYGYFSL
Test: IP-One HTRF assay with buserelin (at EC80) stimulation
Assay type: cell-based
Conditions: CHO cells stably expressing human GnRH receptor, read-out: Potency in IP-One HTRF assay, given as IC50
Method in brief: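 Ten-point duplicate titrations (20 μM to 1 nM) were fitted by 4-parameter model to normalized 665/620 nm HTRF ratios, 0% = no compound, 100% = no agonist. Assay measured IP1 accumulation in human GnRH-R CHO cells stimulated 1 h at 37° C with EC80 buserelin, then lysed 1 h at 22° C.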

Compound | pIC50
COc1cccc(S(=O)(=O)N2c3ccc(C(=O)NCc4ccccc4C(F)(F)F)cc3C3(CCS(=O)(=O)CC3)C2C2CC2)c1 (single isomer, unassigned) [Example 40.1, 2-cyclopropyl-1-[(3-methoxyphenyl)sulfonyl]-N-[2-(trifluoromethyl)benzyl]-1,2,2′,3′,5′,6′-hexahydrospiro[indole-3,4′-thiopyran]-5-carboxamide 1′,1′-dioxide] | 7.72
COc1cccc(S(=O)(=O)N2c3ccc(C(=O)NCc4ccccc4C(F)(F)F)cc3C3(CCS(=O)(=O)CC3)C2C2CC2)c1 (single isomer, unassigned) [Example 40.2, 2-cyclopropyl-1-[(3-methoxyphenyl)sulfonyl]-N-[2-(trifluoromethyl)benzyl]-1,2,2′,3′,5′,6′-hexahydrospiro[indole-3,4′-thiopyran]-5-carboxamide 1′,1′-dioxide] | 6.20
COc1cccc(S(=O)(=O)N2c3ccc(C(=O)NCc4ncccc4Cl)cc3C3(CCS(=O)(=O)CC3)C2C2CC2)c1 (single isomer, unassigned) [Example 41.1, N-[(3-chloropyridin-2-yl)methyl]-2-cyclopropyl-1-[(3-methoxyphenyl)sulfonyl]-1,2,2′,3′,5′,6′-hexahydrospiro[indole-3,4′-thiopyran]-5-carboxamide 1′,1′-dioxide] | 6.99
COc1cccc(S(=O)(=O)N2c3ccc(C(=O)NCc4ncccc4Cl)cc3C3(CCS(=O)(=O)CC3)C2C2CC2)c1 (single isomer, unassigned) [Example 41.2, N-[(3-chloropyridin-2-yl)methyl]-2-cyclopropyl-1-[(3-methoxyphenyl)sulfonyl]-1,2,2′,3′,5′,6′-hexahydrospiro[indole-3,4′-thiopyran]-5-carboxamide 1′,1′-dioxide] | 6.37
COc1cccc(S(=O)(=O)N2c3ccc(C(=O)Nc4cccc(S(N)(=O)=O)c4)cc3C3(CCS(=O)(=O)CC3)C2C2CC2)c1 (single isomer, unassigned) [Example 42.1, 2-cyclopropyl-1-[(3-methoxyphenyl)sulfonyl]-N-(3-sulfamoylphenyl)-1,2,2′,3′,5′,6′-hexahydrospiro[indole-3,4′-thiopyran]-5-carboxamide 1′,1′-dioxide] | 6.36
COc1cccc(S(=O)(=O)N2c3ccc(C(=O)Nc4cccc(S(N)(=O)=O)c4)cc3C3(CCS(=O)(=O)CC3)C2C2CC2)c1 (single isomer, unassigned) [Example 42.2, 2-cyclopropyl-1-[(3-methoxyphenyl)sulfonyl]-N-(3-sulfamoylphenyl)-1,2,2′,3′,5′,6′-hexahydrospiro[indole-3,4′-thiopyran]-5-carboxamide 1′,1′-dioxide] | 7.00
COc1cccc(S(=O)(=O)N2c3ccc(C(=O)Nc4cccc(S(=O)(=O)N(C)C)c4)cc3C3(CCS(=O)(=O)CC3)C2C2CC2)c1 (single isomer, unassigned) [Example 43.1, 2-cyclopropyl-N-[3-(N,N-dimethylsulfamoyl)phenyl]-1-[(3-methoxyphenyl)sulfonyl]-1,2,2′,3′,5′,6′-hexahydrospiro[indole-3,4′-thiopyran]-5-carboxamide 1′,1′-dioxide] | 6.46
COc1cccc(S(=O)(=O)N2c3ccc(C(=O)Nc4cccc(S(=O)(=O)N(C)C)c4)cc3C3(CCS(=O)(=O)CC3)C2C2CC2)c1 (single isomer, unassigned) [Example 43.2, 2-cyclopropyl-N-[3-(N,N-dimethylsulfamoyl)phenyl]-1-[(3-methoxyphenyl)sulfonyl]-1,2,2′,3′,5′,6′-hexahydrospiro[indole-3,4′-thiopyran]-5-carboxamide 1′,1′-dioxide] | 7.44
COc1cccc(S(=O)(=O)N2c3ccc(C(=O)NCc4ccccc4Cl)cc3C3(CCS(=O)(=O)CC3)C2C2CC2)c1 (single isomer, unassigned) [Example 44.1, N-(2-chlorobenzyl)-2-cyclopropyl-1-[(3-methoxyphenyl)sulfonyl]-1,2,2′,3′,5′,6′-hexahydrospiro[indole-3,4′-thiopyran]-5-carboxamide 1′,1′-dioxide] | 7.60
COc1cccc(S(=O)(=O)N2c3ccc(C(=O)NCc4ccccc4Cl)cc3C3(CCS(=O)(=O)CC3)C2C2CC2)c1 (single isomer, unassigned) [Example 44.2, N-(2-chlorobenzyl)-2-cyclopropyl-1-[(3-methoxyphenyl)sulfonyl]-1,2,2′,3′,5′,6′-hexahydrospiro[indole-3,4′-thiopyran]-5-carboxamide 1′,1′-dioxide] | 6.52
COc1cccc(S(=O)(=O)N2c3ccc(C(=O)NCc4ncccc4C)cc3C3(CCS(=O)(=O)CC3)C2C2CC2)c1 (single isomer, unassigned) [Example 45.1, 2-cyclopropyl-1-[(3-methoxyphenyl)sulfonyl]-N-[(3-methylpyridin-2-yl)methyl]-1,2,2′,3′,5′,6′-hexahydrospiro[indole-3,4′-thiopyran]-5-carboxamide 1′,1′-dioxide] | 6.60
COc1cccc(S(=O)(=O)N2c3ccc(C(=O)NCc4ncccc4C)cc3C3(CCS(=O)(=O)CC3)C2C2CC2)c1 (single isomer, unassigned) [Example 45.2, 2-cyclopropyl-1-[(3-methoxyphenyl)sulfonyl]-N-[(3-methylpyridin-2-yl)methyl]-1,2,2′,3′,5′,6′-hexahydrospiro[indole-3,4′-thiopyran]-5-carboxamide 1′,1′-dioxide] | 5.35
COc1cccc(S(=O)(=O)N2c3ccc(C(=O)NCc4ccc(F)cc4Cl)cc3C3(CCS(=O)(=O)CC3)C2C2CC2)c1 (single isomer, unassigned) [Example 46.1, N-(2-chloro-4-fluorobenzyl)-2-cyclopropyl-1-[(3-methoxyphenyl)sulfonyl]-1,2,2′,3′,5′,6′-hexahydrospiro[indole-3,4′-thiopyran]-5-carboxamide 1′,1′-dioxide] | 7.30
COc1cccc(S(=O)(=O)N2c3ccc(C(=O)NCc4ccc(F)cc4Cl)cc3C3(CCS(=O)(=O)CC3)C2C2CC2)c1 (single isomer, unassigned) [Example 46.2, N-(2-chloro-4-fluorobenzyl)-2-cyclopropyl-1-[(3-methoxyphenyl)sulfonyl]-1,2,2′,3′,5′,6′-hexahydrospiro[indole-3,4′-thiopyran]-5-carboxamide 1′,1′-dioxide] | 6.14
COc1cccc(S(=O)(=O)N2c3ccc(C(=O)NCc4ccccc4F)cc3C3(CCS(=O)(=O)CC3)C2C2CC2)c1 (single isomer, unassigned) [Example 47.1, 2-cyclopropyl-N-(2-fluorobenzyl)-1-[(3-methoxyphenyl)sulfonyl]-1,2,2′,3′,5′,6′-hexahydrospiro[indole-3,4′-thiopyran]-5-carboxamide 1′,1′-dioxide] | 7.14
COc1cccc(S(=O)(=O)N2c3ccc(C(=O)NCc4ccccc4F)cc3C3(CCS(=O)(=O)CC3)C2C2CC2)c1 (single isomer, unassigned) [Example 47.2, 2-cyclopropyl-N-(2-fluorobenzyl)-1-[(3-methoxyphenyl)sulfonyl]-1,2,2′,3′,5′,6′-hexahydrospiro[indole-3,4′-thiopyran]-5-carboxamide 1′,1′-dioxide] | 5.05
O=C(O)c1cccc(NC(=O)c2ccc3c(c2)C2(CCS(=O)(=O)CC2)C(C2CC2)N3S(=O)(=O)c2ccc(F)cc2)c1 (single isomer, unassigned) [Example 49.1, 3-[({2-cyclopropyl-1-[(4-fluorophenyl)sulfonyl]-1′,1′-dioxido-1,2,2′,3′,5′,6′-hexahydrospiro[indole-3,4′-thiopyran]-5-yl}carbonyl)amino]benzoic acid] | 7.40
O=C(O)c1cccc(NC(=O)c2ccc3c(c2)C2(CCS(=O)(=O)CC2)C(C2CC2)N3S(=O)(=O)c2ccc(F)cc2)c1 (single isomer, unassigned) [Example 49.2, 3-[({2-cyclopropyl-1-[(4-fluorophenyl)sulfonyl]-1′,1′-dioxido-1,2,2′,3′,5′,6′-hexahydrospiro[indole-3,4′-thiopyran]-5-yl}carbonyl)amino]benzoic acid] | 6.96
NC(=O)c1cccc(NC(=O)c2ccc3c(c2)C2(CCS(=O)(=O)CC2)C(C2CC2)N3S(=O)(=O)c2ccc(F)cc2)c1 (single isomer, unassigned) [Example 51.1, N-(3-carbamoylphenyl)-2-cyclopropyl-1-[(4-fluorophenyl)sulfonyl]-1,2,2′,3′,5′,6′-hexahydrospiro[indole-3,4′-thiopyran]-5-carboxamide 1′,1′-dioxide] | 7.10
NC(=O)c1cccc(NC(=O)c2ccc3c(c2)C2(CCS(=O)(=O)CC2)C(C2CC2)N3S(=O)(=O)c2ccc(F)cc2)c1 (single isomer, unassigned) [Example 51.2, N-(3-carbamoylphenyl)-2-cyclopropyl-1-[(4-fluorophenyl)sulfonyl]-1,2,2′,3′,5′,6′-hexahydrospiro[indole-3,4′-thiopyran]-5-carboxamide 1′,1′-dioxide] | 5.93
COC(=O)c1cccc(S(=O)(=O)N2c3ccc(C(=O)NCc4ccccc4Cl)cc3C3(CCS(=O)(=O)CC3)C2C2CC2)c1 (single isomer, unassigned) [Example 60.1, methyl 3-({5-[(2-chlorobenzyl)carbamoyl]-2-cyclopropyl-1′,1′-dioxido-2′,3′,5′,6′-tetrahydrospiro[indole-3,4′-thiopyran]-1(2H)-yl}sulfonyl)benzoate] | 7.26
